From patent US6385487B1, “Methods for electrokinetic delivery of medicaments” (Biophoretic Therapeutic Systems, LLC, priority 1996, dated 2002)

Tests used:
[1] = tested on: herpes lesions; experiment: Control group: patients with concurrent herpes lesions, one treated iontophoretically, the other by repeated topical application of the same agent; format: in vivo, human; conditions: for Major Response (count), Control lesion / No Response (count), Control lesion / Some Response (count), Control lesion: repeated unassisted topical application of the same antiviral agent; for Major Response (count), Treated lesion / No Response (count), Treated lesion / Some Response (count), Treated lesion: iontophoretically treated lesion, single 10-15 minute treatment; for Outcome of unassisted topically treated lesions: repeated topical application, compared with resolution in 24 hours; for Outcome of iontophoretically treated lesions: single 10-15 minute iontophoretic treatment, all treated lesions
Experimental: The study included a control situation wherein seven patients were found who had simultaneous concurrent herpes lesions at separate locations on their bodies. In each case, one lesion was treated with iontophoretic application of antiviral agent (Acyclovir® or IUDR) and the other lesion was treated in the standard method employed in the prior art comprising repeated topical application of the same antiviral agent.
(§1) The clinical studies included patient volunteers with full informed consent who suffered from recurrent cold sores. […] The treatment incorporated an electrode saturated with Acyclovir® ointment (ZOVIRAX®) or IUDR (STOXIL®) ophthalmic drops as supplied by the manufacturer. Thus mounted Anodic electrode of the prototype system was used for a 10-15 minute application directly to the lesion with the average current setting of 0.2 ma-0.6 ma which was well tolerated by all patients.
(§2) The lesion was evaluated in 24 hours. In 92% of the iontophoretically treated cases (>70 lesions treated) a major response was noted. A major response was categorized by resolution of pain in <6 hours and lesion crusted and healing within 24 hours. The normal course of cold sores involves an average period of 10-12 days before resolution and healing occurs. The present apparatus and clinical method for treatment of mucocutaneous Herpes Simplex (Type I and Type II) eruptions presented herein have been described and performed with excellent results. This novel user-friendly apparatus in combination with the disclosed clinical treatment method presents a very effective new treatment for Herpes Simplex eruptions.

[2] = tested on: mucocutaneous Herpes Simplex (Type I and Type II) eruptions; experiment: Clinical study: iontophoretic application of antiviral agent to herpes lesions (Stage 1 treatment); format: in vivo, human; conditions: for No response (count, Stage 1 treatment results) / Some response (count, Stage 1 treatment results): iontophoretic 10-15 minute application to lesion, 0.2 ma-0.6 ma, evaluated in 24 hours; for Major response (count, Stage 1 treatment results): iontophoretic 10-15 minute application, major response = resolution of pain in <6 hours and lesion crusted and healing within 24 hours
Source text: The inventor has conducted a clinical study using a prototype iontophoretic device in accordance with the present invention for the treatment of cold sores. The clinical response was promising. A second independent, qualified investigator, a board-certified Urologist, conducted a study using the present apparatus and method for treating male genital herpes lesions with encouraging results. Table 1 summarizes data (discussed below) supporting the claim to unexpected clinical benefits treating disease with this novel method. The method and medicament application device when used together for treating these common, embarrassing, and previously not easily-treatable ailments provide surprising advantages.
The embodiment of the device shown in FIG. 1 and described hereinabove is an improvement over the prototype used in the clinical study, which was a larger unit, not user-friendly, which required physically connecting wires to the patient's body which created anxiety, and could not be used without attending personnel. Notwithstanding design, the apparatus used in the clinical study summarized in Table 1 employed electronics similar to the apparatus described herein and was used to optimize the clinical performance of the embodiment 12 of the device described herein.
as §1, §2

Row | Compound | Major Response (count), Control lesion [1] | No Response (count), Control lesion [1] | Some Response (count), Control lesion [1] | Major Response (count), Treated lesion [1] | No Response (count), Treated lesion [1] | Some Response (count), Treated lesion [1] | Outcome of unassisted topically treated lesions [1] | Outcome of iontophoretically treated lesions [1] | No response (count, Stage 1 treatment results) [2] | Some response (count, Stage 1 treatment results) [2] | Major response (count, Stage 1 treatment results) [2]
1 | O=c1[nH]c(=O)n([C@H]2C[C@H](O)[C@@H](CO)O2)cc1I [IUDR, 5-iodo-2 deoxyuridine] | 0 | 5 | 2 | 7 | 0 | 0 | none of the unassisted topically treated lesions demonstrated a similar response | resolution in 24 hours | 1 | 1 | 26
2 | Nc1nc2c(ncn2COCCO)c(=O)[nH]1 [ACYCLOVIR ®, 2-amino-1,9-dihydro-9-[(2-hydroxyethoxy)methyl]-6H-purin-6-one] | 0 | 1 | 0 | 1 | 0 | 0 | none of the unassisted topically treated lesions demonstrated a similar response | resolution in 24 hours | 1 | 3 | 42
